Experiments:
[1] = system: DBA/2N type mice; assay: Audiogenic seizure suppressing effect; type: in vivo; conditions: compound 10 mg/kg, i.p., audio stimulus after 20 minutes, suppression of average seizure score; for inhibition in vivo at 10 mg/kg: Mus musculus, ip, 20 min, read-out: Antiseizure effect (suppression rate %)
Procedure: Audiogenic Seizure Suppressing Effect
The audiogenic seizure suppressing effect of the compounds was evaluated by the method of Sarro et al. [G. B. De Sarro et al., Br. J. Pharmacol., 93, 247 (1988)]. That is, the compound dissolved in 10% 2-hydroxypropyl-β-cyclodextrin was administered intraperitoneally to DBA/2N type mice (male, 3 weeks old). After 20 minutes, a supersonic washer was used to apply audio stimulus of at least 90 dB for one minute. The wild running (WR), clonic seizures (clonus), tonic seizures (tonus), and respiratory arrest (RA) were observed.

[2] = system: Sodium channel; assay: Inhibitory effect of veratrizine-induced sodium channel activity (synaptosome membrane potential, Rhodamine 6G); type: biochemical, Wistar rats; conditions: compound 0.1 μM, rat brain synaptozomes, veratridine-induced depolarization
Procedure: Inhibitory Effect of Veratrizine-induced Sodium Channel Activity
The membrane potential of the synaptozomes prepared from the brain membrane of Wistar rats (male, 10 to 12 weeks old) was measured by the method of Aiuchi et al. (t. Aiuchi et al: Biochimi. Biophys. Acta. 771, 228 (1984)) using a membrane potential sensitive fluorescent dye Rhodamine 6G to evaluate the effects of suppression of the compound on the veratrizine-inducing depolarization response.

SMILES	inhibition in vivo at 10 mg/kg [1]	Anti-veratridine effect (inhibiting rate %) [2]	Antiseizure effect (suppression rate %) ([1]; 10 mg/kg)	Anti-veratridine effect (inhibiting rate %) ([2]; 0.1 µM)	Antiseizure effect (suppression rate %) [1]
O=C(CN1CCC(c2ccc(-c3ccccc3)cc2)CC1)c1ccccc1 [Compound 23, 4-(4-phenyl)phenyl-1-(2-phenyl-2-oxoethyl)piperidine]	84%	11.3%			
c1ccc(-c2ccc(C3CCN(CC4(c5ccccc5)CC4)CC3)cc2)cc1 [Compound 28, 4-(4-phenyl)phenyl-1-(1-phenyl-1-cyclopropane)methylpiperidine]	56%	24%			
OC(COc1ccccc1)CN1CCC(c2ccc(-c3ccccc3)cc2)CC1 (centres unmarked) [Compound 29, 4-(4-phenyl)phenyl-1-(2-hydroxy-3-phenoxy)propylpiperidine]	68%	40%			
O=C(CN1CCC(O)(c2ccc(Oc3ccccc3)cc2)CC1)NC1(c2ccccc2)CC1 [Compound 57, N-(1-phenyl)cyclopropyl-4-hydroxy-4-(4-phenoxy)phenyl-1-piperidinacetamide]	60%	40.1%			
COc1ccc(C(=O)CN2CCC(O)(c3ccc(-c4ccccc4)c(F)c3)CC2)cc1 [Compound 21, 4-(3-fluoro-4-phenyl)phenyl-1-[2-(4-methoxyphenyl)-2-oxoethyl]-4-piperidinol]	91.3%	18.6%			
O[C@H](COc1ccccc1)CN1CCC(O)(c2ccc(Cc3ccc(F)cc3)cc2)CC1 [Compound 47, (S)-4-[4-(4-fluorophenyl)methylphenyl]-1-(2-hydroxy-3-phenoxy)propyl-4-piperidinol]			78%	39.5%	
O=C(CN1CCC(c2ccc(-c3ccccc3)c(F)c2)CC1)NC1CC1c1ccccc1 (stereo not drawn) [Compound 31, N-(trans-2-phenyl-1-cyclopropyl)-4-(3-fluoro-4-phenyl)phenyl-1-piperidinacetamide]		14%			
O=C(CN1CCC(O)(c2ccc(Cc3ccc(F)cc3)cc2)CC1)N[C@@H]1C[C@H]1c1ccccc1 (relative stereo) [Compound 54, N-(trans-2-phenyl-1-cyclopropyl)-4-[4-(4-fluorophenyl)methylphenyl]-4-hydroxy-1-piperidinacetamide]	58%	20.4%			
O=C(CN1CCC(O)(c2ccc(Oc3ccccc3)cc2)CC1)c1ccccc1 [Compound 35, 4-(4-phenoxy)phenyl-1-(2-phenyl-2-oxoethyl)-4-piperidinol]	98%	27.7%			
OC1(c2ccc(-c3ccccc3)c(F)c2)CCN(CC2(c3ccccc3)CC2)CC1 [Compound 26, 4-(3-fluoro-4-phenyl)phenyl-1-(1-phenyl-1-cyclopropane)methyl-1-piperidinol]		30%			
Cc1cccc(C)c1NC(=O)CN1CCC(O)(c2ccc(Oc3ccccc3)cc2)CC1 [Compound 55, N-(2,6-dimethylphenyl)-4-hydroxy-4-(4-phenoxy)phenyl-1-piperidinacetamide]	71.7%	28.3%			
OC1(c2ccc(Oc3ccccc3)cc2)CCN(CC2CC2c2ccccc2)CC1 (stereo not drawn) [Compound 50, 4-(4-phenoxy)phenyl-1-(trans-2-phenyl-1-cyclopropylmethyl)-4-piperidinol]	56%	33.4%			
c1ccc(-c2ccc(C3CCN(CC4CC4c4ccccc4)CC3)cc2)cc1 (stereo not drawn) [Compound 27, 4-(4-phenyl)phenyl-1-(trans-2-phenyl-1-cyclopropylmethyl)piperidine]	52%	41%			
O=C(CN1CCC(O)(c2ccc(Oc3ccccc3)cc2)CC1)NC1CC1c1ccccc1 (stereo not drawn) [Compound 53, N-(trans-2-phenyl-1-cyclopropyl)-4-hydroxy-4-(4-phenoxy)phenyl-1-piperidinacetamide]	74%	32.3%			
Fc1cc(C2CCN(CC3CC3c3ccccc3)CC2)ccc1-c1ccccc1 (stereo not drawn) [Compound 25, 4-(3-fluoro-4-phenyl)phenyl-1-(trans-2-phenyl-1-cyclopropylmethyl)piperidine]	54%	57%			
OC(COc1ccccc1)CN1CCC(O)(c2ccc(-c3ccccc3)c(F)c2)CC1 (centres unmarked) [Compound 24, 4-(3-fluoro-4-phenyl)phenyl-1-(2-hydroxy-3-phenoxy)propyl-4-piperidinol]	74%	23.8%			

SMILES	inhibition in vivo at 10 mg/kg [1]	Anti-veratridine effect (inhibiting rate %) [2]	Antiseizure effect (suppression rate %) ([1]; 10 mg/kg)	Anti-veratridine effect (inhibiting rate %) ([2]; 0.1 µM)	Antiseizure effect (suppression rate %) [1]
OC1(c2ccc(Oc3ccccc3)cc2)CCN(CC2(c3ccccc3)CC2)CC1 [Compound 49, 4-(4-phenoxy)phenyl-1-(1-phenyl-1-cyclopropane)methyl-4-piperidinol]	50%	18.9%			
OC1(c2ccc(Cc3ccc(F)cc3)cc2)CCN(C/C=C/c2ccccc2)CC1 [Compound 37, (E)-4-[4-(4-fluorophenyl)methylphenyl]-1-1-(3-phenyl-2-propenyl)-4-piperidinol]	88%	39.7%			
OC(COc1ccccc1)CN1CCC(O)(c2ccc(Oc3ccccc3)cc2)CC1 (centres unmarked) [Compound 36, 4-(4-phenoxy)phenyl-1-(2-hydroxy-3-phenoxy)propyl-4-piperidinol]	68%			28.6%	
OC(COc1ccccc1)CN1CCC(O)(c2ccc(-c3ccccc3)cc2)CC1 (centres unmarked) [Compound 41, 1-(2-hydroxy-3-phenoxy)propyl-4-(4-phenyl)phenyl-4-piperidinol]	92%	23.7%			
O[C@H](COc1ccccc1)CN1CCC(O)(c2ccc(Oc3ccccc3)cc2)CC1 [Compound 45, (S)-4-(4-phenoxy)phenyl-1-(2-hydroxy-3-phenoxy)propyl-4-piperidinol]			82%	19.8%	
O[C@@H](COc1ccccc1)CN1CCC(O)(c2ccc(Cc3ccc(F)cc3)cc2)CC1 [Compound 48, (R)-4-[4-(4-fluorophenyl)methylphenyl]-1-(2-hydroxy-3-phenoxy)propyl-4-piperidinol]	82%	22.7%			
OC1(c2ccc(-c3ccccc3)c(F)c2)CCN(CC2CC2c2ccccc2)CC1 (centres unmarked) [Compound 32]		27.3%			
O=C(CN1CCC(O)(c2ccc(-c3ccccc3)cc2)CC1)c1ccccc1 [Compound 40, 1-(2-phenyl-2-oxoethyl)-4-(4-phenyl)phenyl-4-piperidinol]	84%	23%			
O[C@@H](COc1ccccc1)CN1CCC(O)(c2ccc(Oc3ccccc3)cc2)CC1 [Compound 46, (R)-4-(4-phenoxy)phenyl-1-(2-hydroxy-3-phenoxy)propyl-4-piperidinol]		19.8%			82%
Fc1cc(C2CCN(C/C=C/c3ccccc3)CC2)ccc1-c1ccccc1 [Compound 18, (E)-4-(3-fluoro-4-phenyl)phenyl-1-(3-phenyl-2-propenyl)piperidine]	62%	13.1%			
C(=C\c1ccccc1)/CN1CCC(c2ccc(-c3ccccc3)cc2)CC1 [Compound 22, (E)-4-(4-phenyl)phenyl-1-(3-phenyl-2-propenyl)piperidine]	72%				
O=C(CN1CCC(O)(c2ccc(Cc3ccc(F)cc3)cc2)CC1)c1ccccc1 [Compound 38, 4-[4-(4-fluorophenyl)methylphenyl]-1-(2-phenyl-2-oxoethyl)-4-piperidinol]	82%	18%			
OC1(c2ccc(-c3ccccc3)cc2)CCN(C/C=C/c2ccccc2)CC1 [Compound 33, (E)-4-(4-phenyl)phenyl-1-(3-phenyl-2-propenyl)-4-piperidinol]		12.8%			
O=C(CN1CCC(c2ccc(-c3ccccc3)c(F)c2)CC1)c1ccccc1 [Compound 19, 4-(3-fluoro-4-phenyl)phenyl-1-(2-phenyl-2-oxoethyl)piperidine]	52%	12.9%			
OC(CN1CCC(O)(c2ccc(-c3ccccc3)cc2)CC1)c1ccccc1 (centres unmarked) [Compound 44, 1-(2-hydroxy-2-phenyl)ethyl-4-(4-phenyl)phenyl-4-piperidinol]	68%				
